Test results from publication PMC6395531 (Journal of medicinal chemistry, 2019).

How the values were obtained:
[1] = test system: Salmonella typhimurium (TA98, TA100, TA1535, TA1537) and Escherichia coli (WP2 uvrA); test: Bacterial reverse mutation assay; settings: presence and absence of S9; monotartaric salts; 1.5 to 5000 μg/plate
[2] = Caco-2 bidirectional permeability; format: in vitro ADME; settings: Table 3
[3] = Pharmacokinetics of 29 in rats; settings: male, Sprague-Dawley, rat, in vivo

SMILES | mutagenicity in the TA1537 strain (Ames assay) [1] | Caco-2 cells A-B [2] [×10⁻⁶ cm/s] | AUC(0-inf) ([3]; iv, 1 mg/kg) [ng·h/mL] | AUC(0-inf) ([3]; po, 2 mg/kg) [ng·h/mL]
CCc1ccc2nc(N3CCC(N[C@H]4CCCC[C@@H]4O)CC3)c(-c3nc(C)no3)cc2c1 [Compound 34, (1S,2S)-2-((1-(6-ethyl-3-(3-methyl-1,2,4-oxadiazol-5-yl)quinolin-2-yl)piperidin-4-yl)amino)cyclohexanol] | exhibited mutagenicity in the TA1537 strain in the presence and absence of S9 | – | – | –
CCc1ccc2nc(N3CCC(N[C@@H]4CCCOC4)CC3)c(-c3nc(C)no3)cc2c1 [Compound 36, (R)-1-(6-ethyl-3-(3-methyl-1,2,4-oxadiazol-5-yl)quinolin-2-yl)-N-(tetrahydro-2H-pyran-3-yl)piperidin-4-amine] | showed a mutagenic response in the TA1537 strain but only in the absence of S9 | – | – | –
Cc1ccc2nc(N3CCC(NC4CCOCC4)CC3)c(-c3nc(C)no3)cc2c1 [Compound 29, 1-(6-methyl-3-(3-methyl-1,2,4-oxadiazol-5-yl)quinolin-2-yl)-N-(tetrahydro-2H-pyran-4-yl)piperidin-4-amine] | – | 26.2 | 212 | 28.4
CCc1ccc2nc(N3CCC(NCC4(C)COC4)CC3)c(-c3nc(C)no3)cc2c1 [Compound 35, 1-(6-ethyl-3-(3-methyl-1,2,4-oxadiazol-5-yl)quinolin-2-yl)-N-((3-methyloxetan-3-yl)methyl)piperidin-4-amine] | exhibited mutagenicity in the TA1537 strain in the presence and absence of S9 | – | – | –
CCc1ccc2nc(N3CCC(N[C@@H](C)C(C)C)CC3)c(-c3nc(C)no3)cc2c1 [Compound 33, (S)-1-(6-ethyl-3-(3-methyl-1,2,4-oxadiazol-5-yl)quinolin-2-yl)-N-(3-methylbutan-2-yl)piperidin-4-amine] | showed a mutagenic response in the TA1537 strain but only in the absence of S9 | – | – | –
